# Measured values reported in article PMC3790851, “Improved Mass Spectrometry Assay For Plasma Hepcidin: Detection and Characterization of a Novel Hepcidin Isoform” (PLoS ONE, 2013).
# Bridge positions count the residues as written; N and C are the ends. Peptide text beside a SMILES is read from it.
# Experiments:
# [1] = average, % of fresh, 10 IC patients and 5 controls, n = 15/8/6/9, hepcidin-20 unreliable (additional peak); for Hepcidin level after one week at -20°C, EDTA plasma: CV (Hep-25/-24/-22/-20) 11/12/11/28
# Procedure: (§1) Samples were used for measurement of hepcidin between 4–7 hrs after blood drawing and/or pooled and/or stored in aliquots at various temperatures for prolonged periods of time.
# (§2) Fresh samples were measured within 2–4 hrs hours after blood drawing and stored in aliquots at various temperatures for prolonged incubation.
# (§3) Mass-to-charge (m/z) spectra were generated by using MALDI-TOF MS (Microflex LT, Bruker Daltonics). Spectra were analyzed by using Bruker Daltonics FlexAnalysis software. […] Total hepcidin concentration was defined as the sum of hepcidin-25, -24, -22, and -20 concentrations.
# (§4) Using the novel heavy hepcidin-25 internal standard, we assessed changes in hepcidin-25 and the smaller isoforms in various samples containing various anticoagulants ex vivo at room temperature (RT), 4°C, −20°C and −80°C. More specifically, changes in hepcidin concentrations relative to those found in freshly collected samples were determined i) at storage at RT and 4°C on day 0 (fresh samples), 1 (14–22 hrs), 2, 3, and 7 days after sampling/storage, ii) at −20°C after 1 week, and after 1, 4 and 6 months of storage and iii) at −80°C at after 6 months of storage.
# [2] = biological target: T1, green fluorescent protein (GFP)-fused human ferroportin (Homo sapiens, UniProt Q9NP59); assay: Hepcidin bioactivity assay: GFP-ferroportin internalization and degradation; format: cell-based; conditions: for potency as inducer of ferroportin degradation: synthetic peptides, compared with hepcidin-25
# T1 construct: expressed in transfected cells
# T1 sequence (Q9NP59 1-571): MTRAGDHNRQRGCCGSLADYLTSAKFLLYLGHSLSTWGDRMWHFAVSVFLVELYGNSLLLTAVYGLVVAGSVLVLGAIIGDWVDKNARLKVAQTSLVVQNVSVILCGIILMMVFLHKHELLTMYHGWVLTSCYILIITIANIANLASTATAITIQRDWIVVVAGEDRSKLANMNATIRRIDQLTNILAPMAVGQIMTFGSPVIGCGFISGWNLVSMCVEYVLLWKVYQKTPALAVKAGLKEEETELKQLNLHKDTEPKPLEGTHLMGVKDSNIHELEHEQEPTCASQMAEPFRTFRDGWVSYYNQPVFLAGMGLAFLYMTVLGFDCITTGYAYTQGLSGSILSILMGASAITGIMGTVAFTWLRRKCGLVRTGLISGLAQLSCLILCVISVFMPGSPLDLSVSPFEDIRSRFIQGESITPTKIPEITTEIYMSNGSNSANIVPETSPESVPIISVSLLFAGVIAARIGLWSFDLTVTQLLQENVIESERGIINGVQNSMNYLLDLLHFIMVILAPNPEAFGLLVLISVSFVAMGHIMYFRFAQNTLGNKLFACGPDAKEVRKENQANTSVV
# Excerpt: A stable cell line engineered for inducible expression of green fluorescent protein (GFP)-fused human ferroportin was used as a test system to determine hepcidin-24 activity relative to hepcidin-25, 22 and 20. In this cell system, ferroportin internalization and degradation provided a means to quantify hepcidin activity. The assay was implemented basically as described by Nemeth et al., [33] except that fluorescence was quantified in triplicate wells on a microplate reader. To determine EC50 values for hepcidin-25 and hepcidin-24, a curve was fitted by nonlinear regression with a four parameter logistic equation using Prism v5 (GraphPad).
# Figure 5 Hepcidin-mediated ferroportin internalization. Different concentrations of synthetic hepcidin-25, -24, -22 and -20 (indicated in nM on the horizontal axis) were added to the growth medium of a stable cell line that expresses green fluorescent protein-fused ferroportin (GFP-FPN). Hepcidin-mediated GFP-FPN internalization and degradation was quantified by measuring cellular fluorescence levels in arbitrary units.
# in vitro [3] = conditions: human
# Procedure: as §1, §2, §3, §4
# [4] = Stability of hepcidin in plasma/serum at room temperature (WCX-TOF MS); format: in vitro ADME, human; conditions: for Hepcidin level after one week at RT / Hepcidin level after one day at RT: % of fresh sample, human heparin plasma, 19 IC patients + 5 controls, results <1.0 nM removed, WCX-TOF MS, hepcidin-25^+40 internal standard, n = 24/15/13/18/11; for Hepcidin level after one week at RT: CV (Hep-25/-24/-22/-20/Total) 23/29/29/38/17; for Hepcidin level after one day at RT: CV (Hep-25/-24/-22/-20/Total) 8/21/14/25/5; for Hepcidin level after one week at RT, without protease inhibitors / Hepcidin level after one day at RT, without protease inhibitors: results <1 nM excluded; for Hepcidin level after one week at RT, without protease inhibitors: CV (Hep-25/-24/-22/-20) 30/31/23/41; for Hepcidin level after one day at RT, without protease inhibitors: CV (Hep-25/-24/-22/-20) 13/20/11/11; for remaining at 168 h / remaining at 1 day: human; for remaining at 168 h: read-out: Hepcidin level after one week at RT, with protease inhibitors; for remaining at 1 day: read-out: Hepcidin level after one day at RT, with protease inhibitors
# Procedure: Spectra were analyzed by using Bruker Daltonics FlexAnalysis software.
# To assess the stability of hepcidin in serum and plasma matrices, we kept samples from intensive care patients (n = 20) and healthy controls (n = 5) at room temperature for 0–7 days followed by WCX-TOF MS analysis using the hepcidin-25^+40 internal standard. […] For the samples at day 1 and day 7, the mean decrease in hepcidin-25 for the 5 controls and 20 intensive care patients was 90% (CV, 8% ) and 55% (CV, 23%), respectively (Table 3).
# in vitro [5] = conditions: human; remark: listed apart in the source
# Procedure: as §1, §2, §3, §4
# [6] = average, % of fresh, 10 IC patients and 5 controls; for Hepcidin level after one day at 4°C, EDTA plasma: CV (Hep-25/-24/-22/-20) 11/6/11/22
# Procedure: as §1, §2, §3, §4
# [7] = average, % of fresh, 7 days, heparin plasma, 10 IC patients, Complete Mini (Roche), CV (Hep-25/-24/-22/-20) 25/35/9/25, n = 10/8/7/8
# [8] = average, % of fresh, 7 days, heparin plasma, 10 IC patients, n = 10/8/7/8
# [9] = average, % of fresh, heparin plasma, 10 IC patients, Complete Mini (Roche), 1 tablet in 200 µL PBS, 20 µL per 1 ml plasma, CV (Hep-25/-24/-22/-20) 8/30/4/14, n = 10/8/7/8
# [10] = average, % of fresh, heparin plasma, 10 IC patients, n = 10/8/7/8
# [11] = results <1.0 nM deleted, n = 15/8/6/9
# 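Wherever Hepcidin level after one month at -20°C, EDTA plasma is given: hepcidin in stored plasma or serum quantified by MALDI-TOF MS against a heavy hepcidin-25 internal standard, expressed relative to concentrations in freshly collected samples.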
# 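Wherever Hepcidin level after one week at -20°C, EDTA plasma is given: hepcidin in stored plasma or serum quantified by MALDI-TOF MS against a heavy hepcidin-25 internal standard, expressed relative to concentrations in freshly collected samples.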
SMILES,"Hepcidin level after one week at -20°C, EDTA plasma [1] [%]",potency as inducer of ferroportin degradation [2],remaining at 672 h (in vitro [3]; EDTA plasma) [%],remaining at 672 h (in vitro [3]; heparin plasma) [%],"Hepcidin level after one week at RT ([4]; average, 7 days) [%]",Hepcidin level after one day at RT ([4]; average) [%],"Hepcidin level after one week at RT, without protease inhibitors [4, 8] [%]","Hepcidin level after one day at RT, without protease inhibitors [4, 10] [%]",remaining at 168 h (in vitro [5]; EDTA plasma) [%],remaining at 168 h (in vitro [5]; heparin plasma) [%],activity relative to hepcidin-24 (fold lower) [2],"remaining at 168 h [4, 7] [%]","remaining at 1 day [4, 9] [%]","Hepcidin level after one day at 4°C, EDTA plasma [6, 11] [%]",further results
"CC[C@H](C)[C@@H]1NC(=O)[C@@H](NC(=O)[C@@H](NC(=O)[C@@H]2CCCN2C(=O)[C@H](Cc2ccccc2)NC(=O)[C@H](Cc2c[nH]cn2)NC(=O)[C@@H](N)[C@@H](C)O)[C@@H](C)CC)CSSC[C@@H](C(=O)N[C@@H](CCCCN)C(=O)N[C@H](C(=O)O)[C@@H](C)O)NC(=O)[C@@H]2CSSC[C@H](NC(=O)[C@H](Cc3ccccc3)NC1=O)C(=O)N[C@H]1CSSC[C@H](NC(=O)[C@H](CCCCN)NC(=O)[C@H](CO)NC(=O)[C@H](CCCNC(=N)N)NC(=O)[C@H](Cc3c[nH]cn3)NC(=O)[C@@H]3CSSC[C@H](NC(=O)CNC1=O)C(=O)N3)C(=O)NCC(=O)N[C@@H](CCSC)C(=O)N2 [Hepcidin-24] (H-THFPICIFCCGCCHRSKCGMCCKT-OH; disulfide 6-22, 9-21, 10-18, 12-13)",96,significantly less potent inducer of ferroportin degradation than hepcidin-25,91,114,104,120,116,128,113,106,–,–,–,–,"EC50 [2]: 192 nM; activity relative to hepcidin-25 (fold lower) ([2]; relative to hepcidin-25): 10 fold; Hepcidin level after one week at RT, with protease inhibitors [4, 7]: 133%; Hepcidin level after one day at RT, with protease inhibitors [4, 9]: 122%"
"CC[C@H](C)[C@H](N)C(=O)N[C@H]1CSSC[C@@H](C(=O)N[C@@H](CCCCN)C(=O)N[C@H](C(=O)O)[C@@H](C)O)NC(=O)[C@@H]2CSSC[C@H](NC(=O)[C@H](Cc3ccccc3)NC(=O)[C@H]([C@@H](C)CC)NC1=O)C(=O)N[C@H]1CSSC[C@H](NC(=O)[C@H](CCCCN)NC(=O)[C@H](CO)NC(=O)[C@H](CCCNC(=N)N)NC(=O)[C@H](Cc3c[nH]cn3)NC(=O)[C@@H]3CSSC[C@H](NC(=O)CNC1=O)C(=O)N3)C(=O)NCC(=O)N[C@@H](CCSC)C(=O)N2 [Hepcidin-20] (H-ICIFCCGCCHRSKCGMCCKT-OH; disulfide 2-18, 5-17, 6-14, 8-9 (inferred); N-terminus and C-terminus assumed)",183,significantly less potent inducer of ferroportin degradation than hepcidin-25,–,102,138,115,164,141,–,–,at least 10 fold,114,118,94,"Hepcidin level after one month at -20°C, EDTA plasma ([1]; 4 weeks, CV (Hep-25/-24/-22/-20) 9/11/19/40): 210%; level of isoform emerging in control samples at RT ([4]; heparin plasma, healthy controls, 0–7 days): below 1 nM; Hepcidin level after one week at 4°C, heparin plasma ([6]; 7 days, CV (Hep-25/-24/-22/-20) 5/8/8/21, n = 15/7/6/10): 114%; Hepcidin level after one week at 4°C, EDTA plasma ([6]; 7 days, CV (Hep-25/-24/-22/-20) 9/8/18/21, n = 15/8/6/9, hepcidin-20 in stored EDTA plasma unreliable (additional peak)): 165%"
"CC[C@H](C)[C@@H]1NC(=O)[C@@H](NC(=O)[C@@H](NC(=O)[C@@H]2CCCN2C(=O)[C@@H](N)Cc2ccccc2)[C@@H](C)CC)CSSC[C@@H](C(=O)N[C@@H](CCCCN)C(=O)N[C@H](C(=O)O)[C@@H](C)O)NC(=O)[C@@H]2CSSC[C@H](NC(=O)[C@H](Cc3ccccc3)NC1=O)C(=O)N[C@H]1CSSC[C@H](NC(=O)[C@H](CCCCN)NC(=O)[C@H](CO)NC(=O)[C@H](CCCNC(=N)N)NC(=O)[C@H](Cc3c[nH]cn3)NC(=O)[C@@H]3CSSC[C@H](NC(=O)CNC1=O)C(=O)N3)C(=O)NCC(=O)N[C@@H](CCSC)C(=O)N2 [Hepcidin-22] (H-FPICIFCCGCCHRSKCGMCCKT-OH; disulfide 4-20, 7-19, 8-16, 10-11)",–,significantly less potent inducer of ferroportin degradation than hepcidin-25,96,89,150,127,160,135,106,96,at least 10 fold,117,105,104,"remaining at 1 week (in vitro [3]; EDTA plasma): 98%; Hepcidin level after one day at 4°C, heparin plasma ([6]; results <1.0 nM deleted, CV (Hep-25/-24/-22/-20) 7/5/13/20, n = 15/7/6/10): 104%"
